Measurements as given in the Kinase Knowledgebase extract (Sharma et al. 2016).

Target: MAPK14 (human) (UniProt Q16539)
Assay: Inhibition of MAPK14 Kinase Activity
Settings: for inhibition: concentration not given here

Sequence of MAPK14 (human) (Q16539 whole entry, looked up): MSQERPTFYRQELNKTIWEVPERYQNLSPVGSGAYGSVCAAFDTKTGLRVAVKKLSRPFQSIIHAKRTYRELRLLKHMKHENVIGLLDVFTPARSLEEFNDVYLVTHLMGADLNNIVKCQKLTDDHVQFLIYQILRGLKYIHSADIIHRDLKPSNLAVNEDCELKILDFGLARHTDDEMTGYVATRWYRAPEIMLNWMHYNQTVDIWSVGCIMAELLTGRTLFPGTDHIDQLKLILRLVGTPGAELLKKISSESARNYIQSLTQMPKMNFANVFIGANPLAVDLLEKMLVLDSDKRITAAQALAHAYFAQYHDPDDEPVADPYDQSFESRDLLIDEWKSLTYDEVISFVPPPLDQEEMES

SMILES: CN(C)CCN1CCN(C(=O)c2sc(C(C)(C)C)cc2NC(=O)Nc2cccc(Cl)c2Cl)C(C)(C)C1=O
- IC50: < 5 µM

SMILES: CCC1(C)C(=O)N(C)CCN1C(=O)c1cc(C(C)(C)C)sc1NC(=O)Nc1cccc(Cl)c1Cl (stereo not drawn)
- IC50: < 5 µM

SMILES: CCC1(C)C(=O)N(CC(=O)NCCN2CCCC2)CCN1C(=O)c1cc(C(C)(C)C)sc1NC(=O)Nc1cccc(Cl)c1Cl (stereo not drawn)
- IC50: < 5 µM

SMILES: CC(C)(C)c1cc(C(=O)N2CCNS(=O)(=O)CC2)c(NC(=O)Nc2cnc(O)c3ccccc23)s1
- inhibition: 26 to 50%

SMILES: CN(C)CCN1CCN(C(=O)c2cc(C(C)(C)C)sc2NC(=O)Nc2cccc(Cl)c2Cl)CCC1=O
- inhibition: 76 to 100%

SMILES: COc1ccc(CN2CCN(C(=O)c3cc(C(C)(C)C)sc3NC(=O)Nc3cccc(Cl)c3Cl)C(C)(C)C2=O)cc1
- IC50: < 5 µM

SMILES: CN(C)C(=O)CN1CCN(C(=O)c2cc(C(C)(C)C)sc2NC(=O)Nc2cccc(Cl)c2Cl)C(C)(C)C1=O
- IC50: < 5 µM

SMILES: CC(C)(C)c1cc(C(=O)N2CCNC(=O)CC2)c(NC(=O)Nc2ccccc2OC(F)(F)F)s1
- IC50: < 5 µM

SMILES: Cn1c(C(C)(C)C)cc(NC(=O)Nc2cccc(Cl)c2Cl)c1C(=O)N1CCNC(=O)C1(C)C
- IC50: < 5 µM

SMILES: CC(C)(C)c1cc(C(=O)N2CCNC(=O)C2)c(NC(=O)Nc2ccc3c(c2)OCO3)s1
- IC50: < 5 µM

SMILES: CN(C)CCNC(=O)CN1CCN(C(=O)c2cc(C(C)(C)C)sc2NC(=O)Nc2cccc(Cl)c2Cl)CC1
- IC50: < 5 µM

SMILES: COC(=O)N1CCN(C(=O)c2cc(C(C)(C)C)sc2NC(=O)Nc2cccc(Cl)c2Cl)CC1
- IC50: < 5 µM

SMILES: CC(C)(C)c1cc(NC(=O)Nc2ccc(F)c(Cl)c2Cl)c(C(=O)N2CCNS(=O)(=O)CC2)[nH]1
- IC50: < 5 µM

SMILES: CCC1(C)C(=O)NCCN1C(=O)c1cc(C(C)(C)C)sc1NC(=O)Nc1ccc(F)cc1Cl (stereo not drawn)
- IC50: < 5 µM

SMILES: CC(C)(C)c1cc(C(=O)N2CCNC(=O)CC2)c(NC(=O)Nc2ccc3ncoc3c2)s1
- inhibition: 76 to 100%

SMILES: CC1(C)CN(C(=O)c2cc(C(C)(C)C)sc2NC(=O)Nc2cccc(Cl)c2Cl)CCNC1=O
- IC50: < 5 µM

SMILES: CC(C)(C)c1cc(C(=O)N2CCNCC2)c(NC(=O)Nc2cccc(Cl)c2Cl)s1
- IC50: < 5 µM

SMILES: Cc1noc(CN2CCN(C(=O)c3cc(C(C)(C)C)sc3NC(=O)Nc3cccc(Cl)c3Cl)C(C)(CC(N)=O)C2=O)n1 (stereo not drawn)
- IC50: < 5 µM

SMILES: CC(C)(C)c1cc(C(=O)N2CCN(CCC(=O)N(CCO)CCO)C(=O)C2(C)C)c(NC(=O)Nc2cccc(Cl)c2Cl)s1
- IC50: < 5 µM

SMILES: CCC1(C)C(=O)N(CC(=O)N(C)OC)CCN1C(=O)c1cc(C(C)(C)C)sc1NC(=O)Nc1cccc(Cl)c1Cl (stereo not drawn)
- IC50: < 5 µM

SMILES: CC(C)(C)c1cc(C(=O)N2CCNC(=O)C2(C)CCO)c(NC(=O)Nc2cccc(Cl)c2Cl)[nH]1 (stereo not drawn)
- IC50: < 5 µM

SMILES: CN(C)CCN1CCN(C(=O)c2cc(C(C)(C)C)sc2NC(=O)Nc2ccccc2Cl)CCC1=O
- IC50: < 5 µM

SMILES: COc1ccc(NC(=O)Nc2sc(C(C)(C)C)cc2C(=O)N2CCNC(=O)CC2)c(Cl)c1Cl
- IC50: < 5 µM

SMILES: COC(=O)c1ccc(NC(=O)Nc2cc(C(C)(C)C)sc2C(=O)N2CCNC(=O)C2(C)C)c(Cl)c1
- IC50: < 5 µM

SMILES: CN(C)CCN1CCN(C(=O)c2cc(C(C)(C)C)sc2NC(=O)Nc2ccccc2C(C)(C)C)C(C)(C)C1=O
- IC50: < 5 µM

SMILES: CC(C)(C)c1cc(C(=O)N2CCNC(=O)CC2)c(NC(=O)Nc2ccc(C#N)c(Cl)c2)s1
- inhibition: 76 to 100%

SMILES: CC(C)(C)c1cc(C(=O)N2CCN(S(C)(=O)=O)CC2)c(NC(=O)Nc2cccc(Cl)c2Cl)s1
- IC50: < 5 µM

SMILES: CC(=O)N1CCN(C(=O)c2cc(C(C)(C)C)sc2NC(=O)Nc2cccc(Cl)c2Cl)CC1
- IC50: < 5 µM

SMILES: CC(C)(C)c1cc(C(=O)N[C@@H]2CC(=O)NC2=O)c(NC(=O)Nc2ccc(Cl)cc2)s1
- inhibition: 76 to 100%

SMILES: CONC(=O)CN1CCN(C(=O)c2cc(C(C)(C)C)sc2NC(=O)Nc2cccc(Cl)c2Cl)C(C)(C)C1=O
- IC50: < 5 µM

SMILES: CN(C)CCCNC(=O)CN1CCN(C(=O)c2cc(C(C)(C)C)sc2NC(=O)Nc2cccc(Cl)c2Cl)C(C)(C)C1=O
- IC50: < 5 µM

SMILES: CN(C)CCNC(=O)CN1CCN(C(=O)c2cc(C(C)(C)C)sc2NC(=O)Nc2cccc(Cl)c2Cl)C(C)(C)C1=O
- IC50: < 5 µM

SMILES: CC(C)(C)c1cc(C(=O)N2CCN(CC(=O)NO)C(=O)C2(C)C)c(NC(=O)Nc2ccc(F)c(Cl)c2Cl)s1
- IC50: < 5 µM
